These results are taken from patent US7632928B2, “Method and antibodies for detecting nitrofuran” (Charm Sciences, Inc, priority 2004, dated 2009).

The structures appear in SMILES notation.

For orientation: melting point means the temperature, or range, at which the solid turns liquid.

Data set [1] has as its system antibody raised against FZDM-Glut-Thyroglobulin immunogen. Description: AOZ ELISA competitive binding assay. The settings on record: positive controls at input levels 0.1 to 10 ppb; PEB vs PBS buffer; plate coated with N-linked FZDM-BSA. From the text:
An AOZ ELISA competitive binding assay is shown below, where the N-linked direct conjugate of FZDM-BSA is used as a binding partner conjugate coated on the ELISA plate, and the N-linked direct conjugate of FZDM-alpha-amylase is used as the positive control of protein-bound FZDM in comparison with the FZDM positive control. The antibody used in the assay was raised against the prior art FZDM-Glut-Thyroglobulin immunogen. Assays were run in two different buffers comparing PEB (Protein Elution Buffer) vs. PBS (Phosphate buffer saline).

Take `N#CC=CC(=O)/C=N/N1CCOC1=O` [compound 3, 5-(2-oxo-oxazolidin-3-ylimino)-4-oxo-pent-2-enenitrile]: the “dose-responses (% inhibition)” value in data set [1] is “varying dose-responses”.

`N#CC=CC(=O)/C=N/N1CC(=O)NC1=O` [compound 1, 5-(2,4-Dioxoimidazolidin-1-ylimino)-4-oxo-pent-2-enenitrile]: the melting point fell in the range of 171 to 173 °C.
